Measurements as given in patent US20250128062A1 (priority 2023, published 2025).
“Also recorded” adds a separate entry of the source.

Tests used:
[1] = in vivo; cited from earlier work
[2] = patients; cited from earlier work
α1 unit of Na,K-ATPase = details: read-out: Kd to block the α1 unit of Na,K-ATPase; cited from earlier work
[3] = tested on: afferent transmission in C-fiber and Aδ-fiber afferents (DRG); test: ex vivo single-fiber recordings of afferent transmission block by DRG stimulation with local Na,K-ATPase inhibition (3-compartment tissue chamber)
From the text: FIG. 9A is a plot of ex vivo single-fiber recordings from afferent axons in a 3-compartment tissue chamber that isolates the DRG from the spinal nerve and dorsal root allowing focused pharmacological application.
Action potentials were evoked by stimulating the peripheral end of the spinal nerve, which is transmitted down the peripheral and central axons to be recorded by extracellular single-fiber recordings from split dorsal root filaments.

C[C@H]1O[C@@H](O[C@H]2[C@@H](O)C[C@H](O[C@H]3[C@@H](O)C[C@H](O[C@H]4CC[C@@]5(C)[C@H](CC[C@@H]6[C@@H]5CC[C@]5(C)[C@@H](C7=CC(=O)OC7)CC[C@]65O)C4)O[C@@H]3C)O[C@@H]2C)C[C@H](O)[C@@H]1O [digitoxin]
route of elimination from the body [1]: eliminated via the liver

C[C@H]1O[C@@H](O[C@H]2[C@@H](O)C[C@H](O[C@H]3[C@@H](O)C[C@H](O[C@H]4CC[C@@]5(C)[C@H](CC[C@@H]6[C@@H]5C[C@@H](O)[C@]5(C)[C@@H](C7=CC(=O)OC7)CC[C@]65O)C4)O[C@@H]3C)O[C@@H]2C)C[C@H](O)[C@@H]1O [digoxin]
serum level considered safe with no apparent side effects [2]: < 1.0 ng/mL

C[C@@H]1O[C@@H](O[C@H]2C[C@@H](O)[C@]3(CO)[C@H]4[C@H](O)C[C@]5(C)[C@@H](C6=CC(=O)OC6)CC[C@]5(O)[C@@H]4CC[C@]3(O)C2)[C@H](O)[C@H](O)[C@H]1O [ouabain]
Kd (α1 unit of Na,K-ATPase): 32 to 170 µM | transmission block of C-fiber afferent by 10 Hz DRG stimulation ([3]; 10 Hz DRG stimulation combined with ouabain 10 μg/mL (17.1 μM), OBF for C-fibers ~50 Hz without drug): effectively blocks afferent transmission; also recorded: transmission block is achieved; also recorded: selectively block C-fiber afferents | transmission block of Aδ-fiber afferent by 10 Hz DRG stimulation ([3]; 10 Hz DRG stimulation combined with ouabain 17.1 μM): unblocked; also recorded: unaffected | transmission block by DRG stimulation as measured by the time to resume transmission following terminating the DRG stimulation ([3]; ouabain 10 μg/mL or 17.1 μM applied locally to the DRG in the middle compartment): significantly prolonged | separation of optimal blocking frequency (OBF) between C-fibers and thinly myelinated Aδ-fibers ([3]; ouabain applied to the DRG): greater separation
